From patent US20220033360A1, “OPHTHALMIC COMPOSITIONS AND METHODS FOR THE TREATMENT OF SKIN DISEASES AND EYE DISEASES” (Cellix Bio Private Limited, priority 2018, published 2022) come the findings set out here.

Usually EC50 stands for the concentration giving half of the maximal effect.

The target of one experiment is human 5-HT2B receptors (Homo sapiens, UniProt P41595). Description: 5-HT2B agonist assay, intracellular calcium (Fluo-3, FLIPR) in HEK-293 cells. In kind it is cell-based. The following applies: HEK-293 cells expressing human 5-HT2B. The procedure:
5-HT2B receptors stably expressing HEK-293 cells were maintained in Dulbecco's modified Eagle's medium (DMEM) supplemented with 10% fetal bovine serum and 250 microgm·mL-1 G-418. HEK-293 cells expressing human 5-HT2B receptors were seeded in […] poly-D-lysine coated plates at a density of 50,000 cells·well-1 in DMEM containing 10% (v.v-1) dialyzed fetal bovine serum and 250 microgm·mL-1 G-418. After overnight incubation, the cells were washed three times with Hank's buffered saline solution containing 2 mM CaCl2), 10 mM HEPES and 2.5 mM probenecid. The cells were incubated with 2 microM Fluo-3 AM in Hank's buffered saline solution for 60 min at 37 C. The Fluo-3 loaded cells were then washed four times with Hank's buffered saline solution. Agonist-induced changes in intracellular calcium concentrations were determined at room temperature using a Fluorometric Imaging Plate Reader.

In a further experiment the test system is 15-LO. Description: Lipoxygenase inhibitor screening assay, cell-free, 15-LO with arachidonic acid as substrate. In kind it is biochemical. The following applies: concentrations from 0.32 to 0.93 mM. On the procedure:
(§1) CLX-162C-C01 in concentrations ranging from 0.001 to 1.2 mM was added to 5-LO or 15-LO in the screening assay buffer, respectively, and the LO inhibitor screening assay was immediately started by addition of the corresponding substrates and running for 5 min. The inhibitory capacity of CLX-162C-C01 against lipoxygenases was studied in a cell-free system consisting of CLX-162C-C01 and 5-LO or 15-LO together with appropriate substrates, respectively.

A further experiment relates to 5-LO. Description: Lipoxygenase inhibitor screening assay, cell-free, 5-LO with linoleic acid as substrate. In kind it is biochemical. The procedure: as §1
Experiment [1] is described as follows: Oxidative capacity of UCP (oxidation of methionine to methionine sulfoxide), cell-free. The conditions noted are these: 0.1 to 10 mM, preincubation 60 min, methionine sulfoxide formation. The procedure: The influence of CLX-162C-C01 on the oxidative capacity of UCP was studied by preincubating UCP (2 mg/ml H2O) with various concentrations of CLX-162C-C01 (0.1, 1, and 10 mM) for 60 min at room temperature in parallel with the controls. To assay the oxidative capacity of UCP, aliquots of 50 microlit (100 microgm UCP) of particle suspension taken from the preincubations were suspended in 1 ml H2O and incubated in the presence of 100 microM methionine for 2 h at 25° C. Formation of methionine sulfoxide was measured fluorometrically after precolumn derivatization with o-phthaldialdehyde and HPLC. […] The oxidative potential of the particles was subsequently determined by their capacity to oxidize […] sulfoxide. […] CLX-162C-C01 antioxidative potency to prevent the oxidation of methionine by agglomerates of ultrafine carbon particles (UCPs). Particulate stimulants such as UCP and zymosan activate lipid mediator synthesis and to induce oxidative stress in macrophages.

Read-outs that look alike come from different tables or passages of the source.

Sequence of human 5-HT2B receptors (P41595 whole entry): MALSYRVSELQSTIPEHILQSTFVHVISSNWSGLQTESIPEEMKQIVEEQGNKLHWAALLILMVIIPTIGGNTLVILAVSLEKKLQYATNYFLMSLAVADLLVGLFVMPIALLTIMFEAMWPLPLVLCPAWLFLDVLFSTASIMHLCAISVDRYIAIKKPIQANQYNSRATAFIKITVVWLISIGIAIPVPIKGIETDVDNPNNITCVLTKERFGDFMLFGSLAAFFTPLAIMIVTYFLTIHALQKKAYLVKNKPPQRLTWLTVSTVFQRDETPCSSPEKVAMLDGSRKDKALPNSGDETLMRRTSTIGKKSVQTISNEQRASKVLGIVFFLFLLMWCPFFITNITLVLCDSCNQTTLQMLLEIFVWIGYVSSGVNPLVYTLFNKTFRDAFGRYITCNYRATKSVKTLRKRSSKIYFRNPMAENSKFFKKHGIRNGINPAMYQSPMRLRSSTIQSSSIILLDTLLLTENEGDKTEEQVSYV

Turning to `Cc1cc(C(C)(C)C)c(O)c(C)c1CC1=NCCN1` [CLX-162C-C01, 2-(4-(tert-butyl)-3-hydroxy-2,6-dimethylbenzyl)-4,5-dihydro-1Himidazol-1-ium (R)-5-(1,2-dithiolan-3-yl) pentanoate], the EC50 was 14.2 nM at human 5-HT2B receptors (read-out: EC50, 5-HT2B agonist effect) and 490 nM at human 5-HT2B receptors (read-out: pEC50 (-log EC50), 5-HT2B agonist effect (converted)). The “inhibition of the activity of 15-LO” value with 15-LO is given as “only marginally affected”. For the same compound, the “inhibition of the activity of 5-LO” value with 5-LO (concentrations from 0.32 to 0.93 mM) was “strongly inhibited”. For the same compound, the IC50 in the experiment with 5-LO (linoleic acid substrate, 5 min, read-out: 50% inhibition of 5-LO) was found to be 320000 nM. For the same compound, the “effect on oxidative capacity of UCP” value in experiment [1] was “did not reduce”.
